Laboratory results published in US9540391B2, “Isomannide derivatives as inhibitors of soluble epoxide hydrolase” (SANOFI, priority 2013, dated 2017).
Where a name gives a salt, the structure may show the parent alone.

The compounds below were run against T1, recombinant sEH (Homo sapiens, UniProt P34913) (assay: biochemical screening assay for inhibition of soluble epoxide hydrolase (fluorometric, Phome substrate)).
T1 construct: made in house; host or cells: Sf9 insect cells
T1 sequence (P34913 1-555): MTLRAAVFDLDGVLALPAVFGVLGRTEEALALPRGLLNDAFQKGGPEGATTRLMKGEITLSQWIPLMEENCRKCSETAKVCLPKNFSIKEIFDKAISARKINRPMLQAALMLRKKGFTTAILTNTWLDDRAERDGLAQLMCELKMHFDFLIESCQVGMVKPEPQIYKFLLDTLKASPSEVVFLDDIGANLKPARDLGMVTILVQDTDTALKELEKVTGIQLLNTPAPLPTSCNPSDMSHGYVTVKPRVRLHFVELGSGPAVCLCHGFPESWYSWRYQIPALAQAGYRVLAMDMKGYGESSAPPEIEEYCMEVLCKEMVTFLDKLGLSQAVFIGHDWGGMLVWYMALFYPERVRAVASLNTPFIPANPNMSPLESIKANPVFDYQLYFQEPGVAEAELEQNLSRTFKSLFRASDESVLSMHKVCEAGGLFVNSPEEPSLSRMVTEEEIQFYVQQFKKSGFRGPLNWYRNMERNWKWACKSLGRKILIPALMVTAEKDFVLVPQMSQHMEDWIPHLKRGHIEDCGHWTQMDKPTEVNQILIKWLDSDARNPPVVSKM
How it was run: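 Human sEH from Sf9 cells (2 nM final) was pre-incubated 15 min at 30 °C with compound (0.0001–10 μM), then reacted 60 min at 30 °C with 5 μM Phome in 25 mM Hepes/0.01% albumin. Fluorescence of released 6-methoxy-2-naphthaldehyde was read before substrate and at end; IC50 from % inhibition.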
`CC(=O)Nc1cccc(O[C@H]2CO[C@H]3[C@@H]2OC[C@@H]3NC(=O)NC2CCCCC2)c1` [Example 102, N-{3-[(3S,3aS,6S,6aR)-6-(3-Cyclohexyl-ureido)-hexahydro-furo[3,2-b]furan-3-yloxy]-phenyl}-acetamide] was tested, and the IC50 was 2 nM. `Cc1ncccc1O[C@H]1CO[C@H]2[C@@H]1OC[C@@H]2NC(=O)NCc1cccnc1` [Example 177, 1-[(3S,3aR,6S,6aS)-6-(2-Methyl-pyridin-3-yloxy)-hexahydro-furo[3,2-b]furan-3-yl]-3-pyridin-3-ylmethyl-urea] was tested, and the IC50 was 456 nM. Work on `O=C(NCCc1cccs1)N[C@H]1CO[C@H]2[C@@H]1OC[C@@H]2/C=C\c1ccccc1` [Example 330, 1-[(3S,3aR,6S,6aR)-6-((Z)-Styryl)-hexahydro-furo[3,2-b]furan-3-yl]-3-(2-thiophen-2-yl-ethyl)-urea] yielded an IC50 of 69 nM. In the case of `O=C(NCCc1ccccc1)N[C@H]1CO[C@@H]2[C@@H](CCc3ccsc3)CO[C@@H]21` [Example 373, 1-Phenethyl-3-[(3S,3aR,6S,6aR)-6-(2-thiophen-3-yl-ethyl)-hexahydro-furo[3,2-b]furan-3-yl]-urea], the IC50 is reported as 39 nM. With `O=C(Nc1ccc(OCc2ccccc2)cc1)NC1COC2C(C=Cc3ccccc3)COC12` [Example 324, 1-(4-Benzyloxy-phenyl)-3-[(3S,3aR,6R)-6-((S)-(Z)-styryl)-hexa-hydro-furo[3,2-b]furan-3-yl]-urea] the IC50 was 81 nM. `O=C(NC1CCCCC1)N[C@H]1CO[C@H]2[C@@H]1OC[C@@H]2Oc1cncnc1` [Example 44, 1-Cyclohexyl-3-[(3S,3aR,6S,6aS)-6-(pyrimidin-5-yloxy)-hexahydro-furo[3,2-b]furan-3-yl]-urea] showed an IC50 of 42 nM. For `Cc1ncccc1O[C@H]1CO[C@H]2[C@@H]1OC[C@@H]2NC(=O)NCc1ccc(OC(F)F)cc1` [Example 189, 1-(4-Difluoromethoxy-benzyl)-3-[(3S,3aR,6S,6aS)-6-(2-methyl-pyridin-3-yloxy)-hexahydro-furo[3,2-b]furan-3-yl]-urea], the IC50 was 23 nM. `O=C(NC1CCCCC1)N[C@H]1CO[C@H]2[C@@H]1OC[C@@H]2Oc1cccc(Cl)c1Cl` [Example 97, 1-Cyclohexyl-3-[(3S,3aR,6S,6aS)-6-(2,3-dichloro-phenoxy)-hexahydro-furo[3,2-b]furan-3-yl]-urea] was tested, and the IC50 was 3 nM. Work on `NC(=O)c1cccc(O[C@H]2CO[C@H]3[C@@H]2OC[C@@H]3NC(=O)NC2CCCCC2)c1` [Example 143, 3-[(3S,3aS,6S,6aR)-6-(3-Cyclohexyl-ureido)-hexahydro-furo[3,2-b]furan-3-yloxy]-benzamide] yielded an IC50 of 6 nM. Compound `O=C(N[C@H]1CO[C@H]2[C@@H]1OC[C@@H]2Oc1ccc(F)cc1)N[C@@H]1CCC[C@H]1OCc1ccccc1` [Example 152, 1-((1R,2R)-2-Benzyloxy-cyclopentyl)-3-[(3S,3aR,6S,6aS)-6-(4-fluoro-phenoxy)-hexahydro-furo[3,2-b]furan-3-yl]-urea] has an IC50 of 2 nM. With `O=C(Nc1cccc(C(F)(F)F)c1)N[C@H]1CO[C@H]2[C@@H]1OC[C@@H]2C#Cc1ccsc1` [Example 316, 1-((3S,3aR,6S,6aR)-6-Thiophen-3-ylethynyl-hexahydro-furo[3,2-b]furan-3-yl)-3-(3-trifluoromethyl-phenyl)-urea] the IC50 was 87 nM. For `Cc1ncccc1O[C@H]1CO[C@H]2[C@@H]1OC[C@@H]2NC(=O)NC1CCCC(C(F)(F)F)C1` (stereo partly drawn) [Example 90, 1-[(3S,3aR,6S,6aS)-6-(2-methyl-pyridin-3-yloxy)-hexahydro-furo[3,2-b]furan-3-yl]-3-(3-trifluoromethyl-cyclohexyl)-urea], the IC50 was 1 nM. For `Cc1ncccc1O[C@H]1CO[C@H]2[C@@H]1OC[C@@H]2NC(=O)NC(C)(C)C1CCCCC1` [Example 241, 1-(1-Cyclohexyl-1-methyl-ethyl)-3-[(3S,3aR,6S,6aS)-6-(2-methyl-pyridin-3-yloxy)-hexahydro-furo[3,2-b]furan-3-yl]-urea], the IC50 was 117 nM. Compound `Cc1cccc(NC(=O)NC2COC3C(C#N)COC23)c1` (stereo not shown) [Example 383] has an IC50 of 694 nM. In the case of `COc1cc(NC(=O)NC2COC3C(C=Cc4ccccc4)COC23)cc(OC)c1` [Example 321, 1-(3,5-Dimethoxy-phenyl)-3-[(3S,3aR,6R)-6-((S)-(Z)-styryl)-hexa-hydro-furo[3,2-b]furan-3-yl]-urea], the IC50 is reported as 66 nM. `CCCCOc1ccc(NC(=O)NC2COC3C(CCc4ccccc4)COC23)cc1` [Example 351, 1-(4-Butoxy-phenyl)-3-[(3S,3aR,6R)-6-((S)-phenethyl)-hexahydro-furo[3,2-b]furan-3-yl]-urea] showed an IC50 of 161 nM. Work on `CC(C)(C)Oc1ccc(O[C@H]2CO[C@H]3[C@@H]2OC[C@@H]3NC(=O)NC2CCCCC2)cc1` [Example 116, 1-[(3S,3aR,6S,6aS)-6-(4-tert-Butoxy-phenoxy)-hexahydro-furo[3,2-b]furan-3-yl]-3-cyclohexyl-urea] yielded an IC50 of 3 nM. Work on `O=C(NC1CCCCC1)N[C@H]1CO[C@H]2[C@@H]1OC[C@@H]2Oc1cccc([N+](=O)[O-])c1` [Example 140, 1-Cyclohexyl-3-[(3S,3aR,6S,6aS)-6-(3-nitro-phenoxy)-hexahydro-furo[3,2-b]furan-3-yl]-urea] yielded an IC50 of 3 nM. `O=C(NC1CCCCC1)N[C@H]1CO[C@H]2[C@@H]1OC[C@@H]2Sc1ccncn1` [Example 49, 1-Cyclohexyl-3-[(3S,3aR,6S,6aS)-6-(pyrimidin-4-ylsulfanyl)-hexahydro-furo[3,2-b]furan-3-yl]-urea; hydrochloride] gave an IC50 of 3 nM. `COc1ccc([C@H](C)NC(=O)N[C@H]2CO[C@H]3[C@@H]2OC[C@@H]3Oc2ccc(F)cc2)cc1` [Example 167, 1-[(3S,3aR,6S,6aS)-6-(4-Fluoro-phenoxy)-hexahydro-furo[3,2-b]furan-3-yl]-3-[(S)-1-(4-methoxy-phenyl)-ethyl]-urea] showed an IC50 of 66 nM. `Cc1ncccc1O[C@H]1CO[C@H]2[C@@H]1OC[C@@H]2NC(=O)N1CCCC(F)(F)C1` [Example 278, 3,3-Difluoro-piperidine-1-carboxylic acid [(3S,3aR,6S,6aS)-6-(2-methyl-pyridin-3-yloxy)-hexahydro-furo[3,2-b]furan-3-yl]-amide] was tested, and the IC50 was 924 nM. `O=C(NCc1ccc(F)cc1)N[C@H]1CO[C@H]2[C@@H]1OC[C@@H]2/C=C\c1ccsc1` [Example 338, 1-(4-Fluoro-benzyl)-3-[(3S,3aR,6S,6aR)-6-((Z)-2-thiophen-3-yl-vinyl)-hexahydro-furo[3,2-b]furan-3-yl]-urea] was tested, and the IC50 was 392 nM. `O=C(NC1CCCCC1)N[C@H]1CO[C@H]2[C@@H]1OC[C@@H]2SC1CCS(=O)(=O)C1` (stereo partly drawn) [Example 25, 1-Cyclohexyl-3-[(3S,3aR,6S,6aS)-6-(1,1-dioxo-tetrahydro-1λ6-thiophen-3-ylsulfanyl)-hexahydro-furo[3,2-b]furan-3-yl]-urea] was tested, and the IC50 was 8 nM. `Cc1nn(C(C)C)cc1NC(=O)N[C@H]1CO[C@H]2[C@@H]1OC[C@@H]2Oc1cccnc1C` [Example 225, 1-(1-Isopropyl-3-methyl-1H-pyrazol-4-yl)-3-[(3S,3aR,6S,6aS)-6-(2-methyl-pyridin-3-yloxy)-hexahydro-furo[3,2-b]furan-3-yl]-urea] was tested, and the IC50 was 43 nM. In the case of `CC(C)(CCO)S[C@H]1CO[C@H]2[C@@H]1OC[C@@H]2NC(=O)NC1CCCCC1` [Example 22, 1-Cyclohexyl-3-[(3S,3aR,6S,6aS)-6-(3-hydroxy-1,1-dimethyl-propylsulfanyl)-hexahydro-furo[3,2-b]furan-3-yl]-urea], the IC50 is reported as 3 nM.
